Measured values: PMC11412900 (Molecular Psychiatry, 2024)
Like-named read-outs stand apart in the source and are kept apart here.

Experiments:
SERT [1] = target: T1, SERT (Homo sapiens, UniProt P31645); experiment: Radioligand binding, [3H]imipramine displacement
T1 construct: YFP (yellow-fluorescent protein); expressed in transfected cells
Procedure: (§1) Binding assays were performed as described previously. Briefly, membrane preparations expressing h5-HT1AR, h5-HT2AR or hSERT (see Supplementary Material) were incubated with radiolabeled selective ligands 0.4 nM [^3H]8-OH-DPAT, 1 nM [^3H]ketanserin or 3 nM [^3H]imipramine, respectively. The drugs were diluted in the corresponding binding buffer and tested at increasing concentrations in duplicate. Binding reactions were performed in tubes containing the drug dilutions; 25 μl of the corresponding radioligand; and the membranes (10 μg and 5 μg/500 μL for 5-HT1AR and 5-HT2AR, respectively, and 15 μg/100 μL for hSERT), all diluted in binding buffer. […] Incubation was performed for 1 h at 27 °C for 5-HT1A/2AR and 22 °C for hSERT, according to the manufacturer’s protocol (Perkin Elmer, Inc., Waltham, MA, USA) and previous studies - saturation and kinetic experiments, respectively. The binding reactions were stopped by rapid filtration through GF/B glass microfiber filters pre-soaked with 0.5% polyethyleneimine and washing with ice-cold wash buffer. The filters were placed into vials and scintillation cocktail was added. The trapped radioactivity was quantified. Specific binding was defined as the difference between total binding (binding buffer alone) and non-specific binding. Experiments were conducted per duplicate for at least three independent experiments.
(§2) The generation and maintenance of HEK293 cells stably expressing the yellow-fluorescent protein (YFP)-tagged version of the human isoform of SERT (hSERT) (Perkin Elmer, Waltham, MA, USA) was carried out as described previously. For uptake inhibition and batch release assays, cells were seeded onto previously poly-D-lysine (PDL)-coated 96-well plates at a density of 0.036 million cells per well [5]. For superfusion release assays, cells were seeded onto a previously coated with PDL 6 channel µ-slide at a density of 0.08 million cells per channel. Prior to patching, cells were grown in DMEM containing 10% FBS, Zeocin (150 µg/mL) and Blasticidin (6 µg/mL) for positive selection of transporter-expressing clones. The cells were seeded at a low density on PDL-coated 35 mm plates 24-48 hr prior to patching. For membrane preparation, HEK293 cells expressing hSERT transporters were harvested from 80–90% confluent dishes as described elsewhere. Protein concentration was determined using the Bio-RadProtein Reagent (Bio Rad Laboratories, Hercules, CA, USA). Membrane preparations were stored at −80°C until use. Generation and maintenance of CHO-K1 cells expressing the human isoform of 5-HT2AR (h5-HT2AR) was carried out as described in the manufacturer’s protocol (Perkin Elmer, Waltham, MA, USA). Routine DAPI-Staining assays tested negative in mycoplasma contamination.

[2] = tested on: horizontal locomotor activity in mice; experiment: Horizontal locomotor activity (HLA); format: in vivo; settings: i.p., 30 min; for HLA (hypolocomotion) Emax (95% CI): total traveled distance
Procedure: The HLA test was carried out according to a previous study. The same animals (N = 8–10 per group) used for the assessment of HTR were recorded for 30 min in an observation arena, under low-light conditions with white noise. Video recordings were processed using a tracking software (Smart 3.0 Panlab, Barcelona, Spain) to measure the total traveled distance.
(§3) Data were expressed as means±standard deviation (SD). Competition, release and functional assays, and substrate-induced current curves were plotted and fitted by non-linear regression to obtain the IC50, EC50, and Emax values. For behavioral studies, data were fitted by non-linear regression and pED50 and Emax values (with the corresponding 95% CI) were estimated by means of a software (GraphPad Prism 10) that further extrapolates the data. The Cheng-Prusoff equation was used to calculate Ki (affinity): Ki = […]/(1 + [radioligand-concentration/Kd]). HTR curves were fitted using a Gaussian equation as described. Data from batch release assays were statistically analyzed with a mixed-effects model, employing Šidák’s correction for multiple comparisons. Total release at each concentration and the behavioral experiments with the corresponding antagonists were statistically analyzed using one-way ANOVA, followed by Tukey’s post-hoc test. Molecular volume (van der Waals) was calculated using a grid approximation (spacing 0.75 Å). logP was calculated using Molinspiration Cheminformatics software. For in vivo studies, one-way ANOVA with Dunnet’s post-hoc test was used to compare all conditions to saline in dose-response experiments when data were normally distributed. Otherwise, a non-parametric test (Kruskall-Wallis with Dunn’s post-hoc test) was used. Alpha was set at 0.05. Outliers were excluded following ROUT’s method (Q = 0.1%). All statistical analyses and Pearson correlations were conducted using GraphPad Prism 10 software (GraphPad software, San Diego, CA, USA).

SERT [3] = target: T1, SERT; experiment: Whole-cell patch clamp, transporter-mediated currents in HEK293 cells; format: cell-based
Text: Whole-cell patch clamping was used to measure the transporter-mediated currents and performed as previously described. […] Cells were continuously superfused by a DAD-12 superfusion system and an 8-tube perfusion manifold (ALA Scientific Instruments in Farmingdale, NY, USA), which allowed to apply a physiological external solution. The pipette solution mimics the internal ionic composition of a cell. […] Passive holding currents were subtracted, and the traces were filtered using a 50-Hz digital Gaussian low-pass filter for analysis purposes. Five independent experiments were performed.

SERT [4] = target: T1, SERT; experiment: Batch release of preloaded [3H]5-HT from HEK293 cells expressing SERT; format: cell-based; settings: with or without monensin, pCA as positive control
Procedure: Batch release is a functional radiometric assay to assess transporter-mediated efflux. […] Subsequently, cells were washed three times with KHB and equilibrated for 10 min in KHB or KHB+monensin (10 µM). […] 10 µM pCA and 0.05 µM paroxetine were used as positive and negative controls, respectively. Liquid scintillation cocktail was added both to the wells containing cells (200 µL) and to the transferred supernatant (100 µL). Total radioactivity determined from/in the remaining lysate of the cells plus the transferred supernatant was set as 100%, and the radioactivity determined in each fraction was expressed as a percentage thereof. Assays were performed per duplicate for five independent experiments.

SERT [5] = target: T1, SERT; experiment: [3H]5-HT uptake inhibition in HEK293 cells expressing hSERT; format: cell-based
Procedure: See the Supplementary Material for cell culture procedures. The medium was removed from each well and replaced with 200 μL/well of Krebs-HEPES-Buffer (KHB). The cells were pre-incubated for 5 min with different concentrations of drug in KHB at 50 μL/well. […] The incubation solution was aspirated and the cells were washed with ice-cold KHB and lysed with 1% sodium dodecyl sulfate (SDS). The lysate was collected into vials and scintillation liquid was added. The radioactivity was quantified using a beta-scintillation counter (Perkin Elmer, Waltham, MA, USA). Non-specific uptake was determined in the presence of 30 μM paroxetine. Data were expressed as percentage of control uptake (absence of tryptamine).
as §2

[6] = tested on: head twitch response in mice; experiment: Head twitch response (HTR); format: in vivo; settings: for HTR Emax (95% CI): 10-min period; for Effect of antagonist pretreatment on tryptamine-induced HTR: antagonist s.c. 1 mg/kg 10 min before tryptamine i.p. 10 mg/kg
Procedure: HTR studies were adapted from. Mice (N = 8–10 per group) were injected intraperitoneally (i.p.) with saline or the appropriate tryptamine dose (0.3, 1, 3, 10, or 30 mg/kg) and placed into the observation arena (25 × 25 × 40 cm). A camera mounted above the observation cage recorded the mice for the next 10 min after the injection. Another batch of animals (N = 8–10) received subcutaneous injections of either saline or the respective antagonist (WAY100635 1 mg/kg for 5-HT1AR or ketanserin 1 mg/kg for 5-HT2AR). After a 10-min interval, the animals were i.p. injected with the corresponding tryptamine (10 mg/kg) and placed in the observation arena. Animal behavior was recorded for the next 10 min after the last injection, as mentioned before. Video recordings were examined by two blind observers blinded to the treatments, who assessed the number of head twitches, defined as a rapid rotational jerk of the head which is not contiguous with any grooming behavior [39].
as §3

[7] = tested on: core body temperature in mice; experiment: Core body temperature measurement; format: in vivo
Procedure: Rectal temperature of mice (N = 8–10 per group) was measured 60 min after i.p. injection of the corresponding compound (see previous section “Head twitch response”). This time point was chosen according to the maximal effect observed in pilot experiments. A thermocouple probe (YS451, Panlab, Barcelona, Spain) connected to a digital thermometer (TMP812RS, Panlab, Barcelona, Spain) was inserted 2 cm into the rectum and steady temperature readout was obtained after 10 s of insertion.
as §3

h5-HT2AR = target: T2, h5-HT2AR (Homo sapiens, UniProt P28223); format: binding; settings: 1 nM [3H]ketanserin, N ≥ 3; read-out: 5-HT2AR Ki ± SD
T2 construct: purchased Perkin Elmer, Inc. (Waltham, MA, USA)
T2 sequence (P28223 whole entry): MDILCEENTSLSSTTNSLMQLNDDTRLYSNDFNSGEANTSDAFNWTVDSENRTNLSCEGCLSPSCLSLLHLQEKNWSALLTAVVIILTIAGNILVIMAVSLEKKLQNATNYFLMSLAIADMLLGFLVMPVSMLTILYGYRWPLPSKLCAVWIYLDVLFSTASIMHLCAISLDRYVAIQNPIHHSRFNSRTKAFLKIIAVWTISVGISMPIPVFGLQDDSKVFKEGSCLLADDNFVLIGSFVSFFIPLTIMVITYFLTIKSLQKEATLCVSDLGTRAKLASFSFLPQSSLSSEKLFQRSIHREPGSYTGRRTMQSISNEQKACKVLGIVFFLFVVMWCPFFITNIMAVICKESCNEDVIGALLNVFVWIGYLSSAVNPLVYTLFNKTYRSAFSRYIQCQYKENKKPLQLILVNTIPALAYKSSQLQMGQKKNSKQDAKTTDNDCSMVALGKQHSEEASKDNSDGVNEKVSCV
Procedure: as §1

h5-HT1AR = target: T3, h5-HT1AR (Homo sapiens, UniProt P08908); experiment: Radioligand binding, [3H]8-OH-DPAT displacement; settings: 0.4 nM [3H]8-OH-DPAT, N ≥ 3; read-out: 5-HT1AR Ki ± SD
T3 construct: purchased Perkin Elmer, Inc. (Waltham, MA, USA)
T3 sequence (P08908 1-422): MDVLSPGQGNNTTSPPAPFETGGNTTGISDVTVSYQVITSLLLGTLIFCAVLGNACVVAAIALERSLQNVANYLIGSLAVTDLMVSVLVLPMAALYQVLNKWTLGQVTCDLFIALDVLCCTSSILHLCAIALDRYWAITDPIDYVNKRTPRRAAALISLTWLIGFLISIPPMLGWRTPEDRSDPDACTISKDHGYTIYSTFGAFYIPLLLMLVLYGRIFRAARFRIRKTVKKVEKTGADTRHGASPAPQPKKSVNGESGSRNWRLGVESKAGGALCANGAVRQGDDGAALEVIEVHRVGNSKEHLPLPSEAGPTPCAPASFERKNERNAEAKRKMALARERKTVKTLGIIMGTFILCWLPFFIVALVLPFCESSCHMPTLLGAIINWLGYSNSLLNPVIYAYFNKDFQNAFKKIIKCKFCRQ
Procedure: as §1

[8] = 3 nM [3H]imipramine, N ≥ 3, read-out: SERT Ki ± SD
[9] = read-out: 5-HT uptake inhibition IC50 ± SD, HEK293 hSERT, N ≥ 3
[10] = mice, i.p., 10 min after injection
[11] = mice, i.p., 60 min after injection

T1 sequence (P31645 whole entry): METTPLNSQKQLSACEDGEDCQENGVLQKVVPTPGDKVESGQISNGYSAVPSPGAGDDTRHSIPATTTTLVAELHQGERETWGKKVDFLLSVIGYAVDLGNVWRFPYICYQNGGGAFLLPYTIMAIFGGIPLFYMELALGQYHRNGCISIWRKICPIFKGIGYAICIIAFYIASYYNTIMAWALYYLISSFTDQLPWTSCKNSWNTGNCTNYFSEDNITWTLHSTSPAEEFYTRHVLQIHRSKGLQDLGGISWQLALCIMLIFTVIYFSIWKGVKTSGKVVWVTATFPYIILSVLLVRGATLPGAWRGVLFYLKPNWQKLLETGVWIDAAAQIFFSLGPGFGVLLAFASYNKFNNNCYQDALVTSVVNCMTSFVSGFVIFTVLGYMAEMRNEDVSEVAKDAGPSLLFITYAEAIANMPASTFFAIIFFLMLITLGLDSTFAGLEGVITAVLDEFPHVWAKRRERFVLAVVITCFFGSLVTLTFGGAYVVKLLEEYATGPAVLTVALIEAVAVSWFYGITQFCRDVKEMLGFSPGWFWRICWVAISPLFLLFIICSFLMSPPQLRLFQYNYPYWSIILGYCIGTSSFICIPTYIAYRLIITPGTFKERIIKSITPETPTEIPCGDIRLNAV

Compound | HLA (hypolocomotion) Emax (95% CI) [2] | HTR Emax (95% CI) ([6]; mice, i.p.) | Ki (SERT [1]; [8]) [µM] | Ki (h5-HT2AR) [µM] | HLA (hypolocomotion) ED50 [2] [mg/kg] | IC50 (SERT [5]; [9]) [µM] | HTR ED50 [6, 10] [mg/kg] | Ki (h5-HT1AR) [µM] | Change in body temperature ED50 [7, 11] [mg/kg] | Effect of antagonist pretreatment on tryptamine-induced HTR [6] | further results
COc1ccc2[nH]cc(CCN(C)C)c2c1 [5-MeO-DMT, 5-methoxy-N,N-dimethyltryptamine] | 41.72 (32.18–51.26) % reduction | 38.1 (31.7–44.5) HTR events |  |  |  |  |  |  |  |  | Ki (SERT [1]): 14.5 µM; ED50 ([2]; Mus musculus, ip, 0.5 h, read-out: HLA (hypolocomotion) ED50): 0.976 mg/kg; EC50 (SERT [3]): 2.6 µM; SERT-mediated inward current Emax (SERT [3]; normalized to current elicited by 5-HT 10 µM): 0.41; SERT substrate type (SERT [3]; whole-cell patch clamp): partial SERT substrates; 5-HT releasing activity (SERT [4]): capable of evoking 5-HT release; IC50 (SERT [5]): 50.1 µM; ED50 ([6]; Mus musculus, ip, 10 min, mice, i.p., 10 min after injection): 4.84 mg/kg; ED50 ([7]; Mus musculus, ip, 1 h, mice, i.p., 60 min after injection, read-out: Change in body temperature ED50): 4.75 mg/kg
C=CCN(C)CCc1c[nH]c2ccc(OC)cc12 [5-MeO-MALT] | 85.40 (55.18–115.6) % reduction | 27.6 (23.2–32.0) HTR events | 4.01 ± 0.417 | 0.0529 ± 0.009 | 7.32 | 44.1 | 0.796 | 0.00596 ± 0.00047 | 10.2 |  | 
COc1ccc2[nH]cc(CCNC(C)C)c2c1 [5-MeO-NIPT] | 77.64 (69.78–85.50) % reduction | 7.58 (5.46–9.71) HTR events | 8.59 ± 1.71 | 0.123 ± 0.038 | 1.96 | 32.1 | 4.85 | 0.0157 ± 0.0023 | 7.35 |  | 
COc1ccccc1N1CCN(CCN(C(=O)C2CCCCC2)c2ccccn2)CC1 [WAY100635, reference compound] |  |  |  |  |  |  |  |  |  | the number of head twitches increased significantly | Effect of antagonist pretreatment on tryptamine-induced decrease in body temperature ([7]; antagonist s.c. 1 mg/kg before tryptamine i.p. 10 mg/kg, 60 min): the decrease in body temperature was lower
O=C(c1ccc(F)cc1)C1CCN(CCn2c(=O)[nH]c3ccccc3c2=O)CC1 [ketanserin, reference compound] |  |  |  |  |  |  |  |  |  | prevented HTR response | 
